From patent US11008323B2, “Substituted tricyclic 1,4-benzodiazepinone derivatives as allosteric modulators of group II metabotropic glutamate receptors” (Domain Therapeutics, priority 2015, dated 2021)
Where a name gives a salt, the structure may show the parent alone.

Assays:
human mGluR3 (hmGluR3) = target: T1, human mGluR3 (hmGluR3) (Homo sapiens, UniProt Q14832); assay: Human mGluR3 positive allosteric modulator evaluation using Ca++ functional assay; type: cell-based; details: hmGluR3 transiently over-expressed in HEK-293 cells; stimulated by EC50 glutamate concentration; intracellular Ca2+ (Fluo4AM, FLIPR Tetra)
T1 construct: expressed in transfected cells; host or cells: HEK-293 cells, transient co-transfection by electroporation
How it was run: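 HEK-293 cells transiently co-expressing hmGluR3, a chimeric G protein and two glutamate transporters; Fluo4 calcium read on FLIPR. Compound alone for 10 min (agonist), then EC50 glutamate for 3 min (PAM); 20-point curves gave EC50, duplicate, two independent runs.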

T1 sequence (Q14832 23-879): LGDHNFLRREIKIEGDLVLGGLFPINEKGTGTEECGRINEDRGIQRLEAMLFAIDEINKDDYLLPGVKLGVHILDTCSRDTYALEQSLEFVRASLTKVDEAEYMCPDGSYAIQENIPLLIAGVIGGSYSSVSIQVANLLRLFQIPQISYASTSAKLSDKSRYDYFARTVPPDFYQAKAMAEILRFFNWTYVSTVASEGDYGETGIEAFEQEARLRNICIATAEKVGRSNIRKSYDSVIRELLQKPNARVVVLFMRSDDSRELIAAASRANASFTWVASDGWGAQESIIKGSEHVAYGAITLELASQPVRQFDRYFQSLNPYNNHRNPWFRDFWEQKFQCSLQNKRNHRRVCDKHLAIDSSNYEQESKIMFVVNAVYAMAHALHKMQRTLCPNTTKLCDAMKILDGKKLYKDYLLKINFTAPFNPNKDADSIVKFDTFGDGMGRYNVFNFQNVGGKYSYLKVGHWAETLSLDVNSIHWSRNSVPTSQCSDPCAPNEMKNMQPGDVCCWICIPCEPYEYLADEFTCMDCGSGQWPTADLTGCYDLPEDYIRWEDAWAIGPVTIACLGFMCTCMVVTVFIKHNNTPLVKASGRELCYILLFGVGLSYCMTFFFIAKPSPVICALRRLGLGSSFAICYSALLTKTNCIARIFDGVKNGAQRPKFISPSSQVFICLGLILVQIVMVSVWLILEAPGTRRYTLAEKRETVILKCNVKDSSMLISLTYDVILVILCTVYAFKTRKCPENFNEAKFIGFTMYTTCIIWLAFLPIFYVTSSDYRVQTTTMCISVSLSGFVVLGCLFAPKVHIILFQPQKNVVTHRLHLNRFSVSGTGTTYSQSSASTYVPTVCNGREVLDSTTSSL

melting point [°C]	EC50 (human mGluR3 (hmGluR3)) [µM]	SMILES
185 to 190		Cc1ncccc1-c1ccc2c(c1)-n1cc(-c3ccccc3F)cc1C(=O)N(C)C21CC1 (as salt: hydrochloride) [Example 151]
120 to 134		Cc1ncccc1-c1ccc2c(c1)-n1cc(N(C)C)cc1C(=O)N(C)C21CC1 (as salt: hydrochloride) [Example 154]
230 to 235		Cc1ncccc1-c1ccc2c(c1)-n1cc(C3CCCC3)cc1C(=O)N(C)C21CC1 (as salt: hydrochloride) [Example 156]
240 to 245		Cc1ncccc1-c1ccc2c(c1)-n1cc(-c3nccs3)cc1C(=O)N(C)C21CC1 (as salt: hydrochloride) [Example 157]
228 to 239		Cc1ccc(-c2ccc3c(c2)-n2cc(-c4nccs4)cc2C(=O)N(C)C32CC2)cn1 (as salt: hydrochloride) [Example 158]
229 to 237		Cc1ncccc1-c1ccc2c(c1)-n1cc(-c3ccnn3C)cc1C(=O)N(C)C21CC1 (as salt: hydrochloride) [Example 160]
189 to 195		CCc1ncccc1-c1ccc2c(c1)-n1cc(-c3ccccc3F)cc1C(=O)N(C)C21CC1 (as salt: hydrochloride) [Example 162]
187 to 192		CCc1ncccc1-c1ccc2c(c1)-n1cc(-c3ccnn3C)cc1C(=O)N(C)C21CC1 (as salt: hydrochloride) [Example 163]
> 250		CN1Cc2ccc(-c3ccc(N)nc3)cc2-n2cc(-c3ccccc3)cc2C1=O (as salt: hydrochloride) [Example 165, 9-(6-Amino-pyridin-3-yl)-5-methyl-2-phenyl-5,6-dihydro-benzo[f]pyrrolo[1,2-a][1,4]diazepin-4-one]
240 to 245		Cc1ncccc1-c1ccc2c(c1)-n1cc(-c3ccccc3)nc1C(=O)N(C)C2 (as salt: hydrochloride) [Example 166, 5-Methyl-9-(2-methylpyridin-3-yl)-2-phenyl-5,6-dihydro-4H-benzo[f]imidazo[1,2-a][1,4]diazepin-4-one]
> 250		Cc1ncccc1-c1ccc2c(c1)-n1cc(-c3cnc[nH]3)cc1C(=O)N(C)C21CC1 (as salt: hydrochloride) [Example 183]
200 to 220		CC(=O)c1cc2n(c1)-c1cc(-c3cccnc3C)ccc1C1(CC1)N(C)C2=O (as salt: hydrochloride) [Example 195]
165 to 176		Cc1ncccc1-c1ccc2c(c1)-n1cc(CC3CCCC3)cc1C(=O)N(C)C21CC1 (as salt: hydrochloride) [Example 196]
165 to 175		CCc1cc2n(c1)-c1cc(-c3cccnc3C)ccc1C1(CC1)N(C)C2=O (as salt: hydrochloride) [Example 197]
240 to 250		Cc1ncccc1-c1ccc2c(c1)-n1cc(C(F)F)cc1C(=O)N(C)C21CC1 (as salt: hydrochloride) [Example 201]
113 to 123		COCc1cc2n(c1)-c1cc(-c3ccc(C)nc3)ccc1C1(CC1)N(C)C2=O (as salt: hydrochloride) [Example 205]
120 to 140		Cc1ncccc1-c1ccc2c(c1)-n1nccc1C(=O)N(C)C2 (as salt: hydrochloride) [Example 217, 5-Methyl-9-(2-methylpyridin-3-yl)-5,6-dihydro-4H-benzo[f]pyrazolo[1,5-a][1,4]diazepin-4-one]
140 to 156		Cc1ncccc1-c1ccc2c(c1)-n1cccc1C(=O)N(C)C2C (centres unmarked) (as salt: hydrochloride) [Example 218, 5,6-Dimethyl-9-(2-methyl-pyridin-3-yl)-5,6-dihydro-benzo[f]pyrrolo[1,2-a][1,4]diazepin-4-one]
230 to 250		Cc1ncccc1-c1ccc2c(c1)-n1cccc1C(=O)N(C)C2(C)C (as salt: hydrochloride) [Example 223, 5,6,6-Trimethyl-9-(2-methyl-pyridin-3-yl)-5,6-dihydro-benzo[f]pyrrolo[1,2-a][1,4]diazepin-4-one]
130 to 138	0.1 to 1	CN1C(=O)c2cccn2-c2cc(C=CC#N)ccc2C12CC2 (mixture of isomers) [Example 52, 5-Methyl-9-actylonitrile-spiro[benzo[f]pyrrolo[1,2-a][1,4]diazepine-6,1′-cyclopropan]-4(5H)-one]
> 250		CN1C(=O)c2cc(C(=O)O)cn2-c2cc(-c3ccc(F)nc3)ccc2C12CC2 [Example 177, 5-Methyl-9-(6-fluoro-pyridin-3-yl)-4-oxo-4,5-dihydrospiro[benzo[f]pyrrolo[1,2-a][1,4]diazepine-6,1′-cyclopropane]-2-carboxylic acid]

Second part, the molecule before the results:

SMILES	melting point [°C]	EC50 (human mGluR3 (hmGluR3)) [µM]
Cc1ncccc1-c1ccc2c(c1)-n1cc(-c3ccncc3)cc1C(=O)N(C)C21CC1 (as salt: hydrochloride) [Example 145]	> 250	
Cc1ncccc1-c1ccc2c(c1)-n1cc(-c3cc[nH]n3)cc1C(=O)N(C)C21CC1 (as salt: hydrochloride) [Example 146]	240 to 250	
Cc1ncccc1-c1ccc2c(c1)-n1cc(-c3ccc(F)cc3)cc1C(=O)N(C)C21CC1 (as salt: hydrochloride) [Example 150]	226 to 230	
Cc1ncccc1-c1ccc2c(c1)-n1cc(-c3cccc(F)c3)cc1C(=O)N(C)C21CC1 (as salt: hydrochloride) [Example 152]	183 to 190	
Cc1ncccc1-c1ccc2c(c1)-n1cc(C3CC3)cc1C(=O)N(C)C21CC1 (as salt: hydrochloride) [Example 155]	190 to 198	
Cc1ccc(-c2ccc3c(c2)-n2cc(-c4ccnn4C)cc2C(=O)N(C)C32CC2)cn1 (as salt: hydrochloride) [Example 159]	187 to 194	
CCN1Cc2ccc(-c3cccnc3C)cc2-n2cc(-c3ccccc3)nc2C1=O (as salt: hydrochloride) [Example 167, 5-Ethyl-9-(2-methylpyridin-3-yl)-2-phenyl-5,6-dihydro-4H-benzo[f]imidazo[1,2-a][1,4]diazepin-4-one]	200 to 220	
Cc1ncccc1-c1ccc2c(c1)-n1cc(-c3cnco3)cc1C(=O)N(C)C21CC1 (as salt: hydrochloride) [Example 182]	158 to 168	
Cc1ncccc1-c1ccc2c(c1)-n1cc(-c3ncc[nH]3)cc1C(=O)N(C)C21CC1 (as salt: hydrochloride) [Example 184]	> 250	
Cc1ncccc1-c1ccc2c(c1)-n1cc(C(=O)C3CCCC3)cc1C(=O)N(C)C21CC1 (as salt: hydrochloride) [Example 194]	177 to 190	
CCc1ncccc1-c1ccc2c(c1)-n1cc(C)cc1C(=O)N(C)C21CC1 (as salt: hydrochloride) [Example 199]	179 to 184	
CCc1ncccc1-c1ccc2c(c1)-n1cc(CO)cc1C(=O)N(C)C21CC1 (as salt: hydrochloride) [Example 203]	> 250	
Cc1ncccc1-c1ccc2c(c1)-n1cncc1C(=O)N(C)C2 (as salt: hydrochloride) [Example 215, 5-Methyl-9-(2-methylpyridin-3-yl)-5,6-dihydro-4H-benzo[f]imidazo[1,5-a][1,4]diazepin-4-one]	158 to 170	
Cc1ncccc1-c1ccc2c(c1)-n1ccnc1C(=O)N(C)C2 (as salt: hydrochloride) [Example 216, 5-Methyl-9-(2-methylpyridin-3-yl)-5,6-dihydro-4H-benzo[f]imidazo[1,2-a][1,4]diazepin-4-one]	210 to 230	
CC1c2ccc(-c3ccc(N(C)C)nc3)cc2-n2cccc2C(=O)N1C (centres unmarked) (as salt: hydrochloride) [Example 219, 9-(6-Dimethylamino-pyridin-3-yl)-5,6-dimethyl-5,6-dihydro-benzo[f]pyrrolo[1,2-a][1,4]diazepin-4-one]	145 to 162	
CCC1c2ccc(-c3cccnc3C)cc2-n2cccc2C(=O)N1C (centres unmarked) (as salt: hydrochloride) [Example 220, 6-Ethyl-5-methyl-9-(2-methyl-pyridin-3-yl)-5,6-dihydro-benzo[f]pyrrolo[1,2-a][1,4]diazepin-4-one]	160 to 170	
Cc1ncccc1-c1ccc2c(c1)-n1cccc1C(=O)N(C)C21CC1 [Example 20, 5-Methyl-9-(2-methyl-pyridin-3-yl)-spiro[benzo[f]pyrrolo[1,2-a][1,4]diazepine-6,1′-cyclopropan]-4(5H)-one]	200 to 210	0.1 to 1
COCN1C(=O)c2cccn2-c2cc(-c3cccnc3C)ccc2C12CC2 [Example 21, 5-Methoxymethyl-9-(2-methyl-pyridin-3-yl)-spiro[benzo[f]pyrrolo[1,2-a][1,4]diazepine-6,1′-cyclopropan]-4(5H)-one]	138 to 142	> 1
Cc1n[nH]c(C)c1-c1ccc2c(c1)-n1cccc1C(=O)N(C)C21CC1 [Example 27, 5-Methyl-9-(3,5-dimethyl-1H-pyrazol-4-yl)-spiro[benzo[f]pyrrolo[1,2-a][1,4]diazepine-6,1′-cyclopropan]-4(5H)-one]	115 to 125	> 1
CN1C(=O)c2cccn2-c2cc(-c3c[nH]nc3C(F)(F)F)ccc2C12CC2 [Example 28, 5-Methyl-9-(3-trifluoromethyl-1H-pyrazol-4-yl)-spiro[benzo[f]pyrrolo[1,2-a][1,4]diazepine-6,1′-cyclopropan]-4(5H)-one]	> 250	> 1
[2H]C([2H])([2H])N1C(=O)c2cc(C(=O)O)cn2-c2cc(-c3ccc(F)nc3)ccc2C12CC2 [Example 178, 5-(Methyl-d3)-9-(6-fluoro-pyridin-3-yl)-4-oxo-4,5-dihydrospiro[benzo[f]pyrrolo[1,2-a][1,4]diazepine-6,1′-cyclopropane]-2-carboxylic acid]	> 250	
